Publication PMC12083017, “Enhanced oral bioavailability of two Cistanche polysaccharides in acteoside: an in-depth analysis of intestinal flora, short-chain fatty acids, and pharmacokinetic regulation” (Frontiers in Nutrition, 2025)
Read-outs that look alike come from different tables or passages of the source.

How the values were obtained:
[1] = type: physicochemical; conditions: rat; for Short-term stability (RSD,%): 4 h; for Post-preparation stability (RSD,%): 24 h; for Long-term stability (RSD,%): 15 days
Description: A 4°C freezer was then used to make and store the stock solution (1 mg/mL). Moreover, 50% methanol was used to dilute 1 μg/mL of the IS working solution. […] Before being analyzed, the entire set of QC samples were kept at −80°C. An examination of stability using QC samples at low, medium, and high doses. Short-term stability was measured by injecting samples after staying 4 h at room temperature (25°C). After preparation, the sample was kept at 4°C for 24 h, and the dosage was injected to ascertain the sample’s stability. To determine long-term stability, samples were frozen at −80°C for 15 days before being injected. By thawing the samples three times in a row at room temperature and a freezer at −20°C, the freeze–thaw stability was ascertained.

[2] = Pharmacokinetics of acteoside and its metabolites in rat plasma after oral acteoside (UPLC-QqQ-MS); type: in vivo, male Sprague–Dawley rats; conditions: for AUC(0-inf) / AUC(0-t) / Tmax / half-life / Cmax / MRT last / MRT inf: male, Sprague-Dawley, rat, plasma, po, 100 mg/kg; for MRT last: read-out: MRT(0-t); for MRT inf: read-out: MRT(0-∞)
From the text: After a week of acclimatization, rats were split into three groups at random: the wine-processed Cistanche polysaccharide group (WCP group), the unprocessed Cistanche polysaccharide group (UCP group), and the blank control group (Control group). Six rats each group were raised in the same cage for breeding. Prior to the experiment, provide water and regular laboratory meals to the rats at will and fast for one night before the experiment. In order to ensure the continuous intake of Cistanche polysaccharides, it was calculated according to the requirements of the Chinese Pharmacopoeia ([16]) based on the daily dosage of Cistanche for adults, the polysaccharide yield of Cistanche polysaccharides and the equivalent conversion formula of the drug administration between humans and rats ([17]). An appropriate amount of raw Cistanche polysaccharide and Cistanche wine polysaccharide were weighed, dissolved in pure water, and prepared with 15.06 g·kg^-1 administration solution for continuous administration for 21 days. After fasting overnight, on day 22, two fresh fecal samples were collected from each rat, put straight into a sterile tube from the anus, avoiding contact with skin or urine, and stored in a -80°C freezer immediately after freezing with liquid nitrogen for subsequent analysis. For the pharmacokinetics, in a 1.5 mL heparinized centrifuge tube, 0.3 mL of continuous blood collected from the orbital vein was taken from 0 min, 5 min, 10 min, 30 min, 1.0 […], and 36 h following oral administration of acteoside (100 mg/kg) in the three groups. Using a cryo-centrifuge, plasma samples were produced by centrifuging at 800 g for ten minutes at 4°C. After that, plasma samples were gathered and kept for later examination at -80°C. […] Following this,20 μL of genistein (1 μg/mL IS) solution and 600 μL of cold acetonitrile were then included and centrifuged for 5 min, the […] proteins were separated by vortexing for 5 min, and then they were spun down for 15 min at 4°C at 14,000 rpm. The supernatant was gathered and dried at 40°C with a light nitrogen stream. The dried remnant was then immersed in 100 μL of 25% aqueous acetonitrile fluid, and centrifugation was performed again for 10 min at 4°C at 14,000 rpm. Ultimately, the LC-MS/MS system was injected with 2 μL of the liquid for analysis. A 1.7 μm and 2.1 × 100 mm I.D. […] With a column temperature of 30°C, the flow rate was fixed at 0.3 mL/min. In the mass spectrometry analysis, negative ionization mode was performed with the following optimized parameters: capillary voltage, 3.0 kV; desolvation temperature, 400°C. […] Thus, multiple reaction monitoring (MRM) of the acteoside transitions at 623.37 → 161.02 m/z, caffeic acid transitions at 179.01 → 135.03 m/z, hydroxytyrosol transitions at 153.03 → 122.95 m/z, genistein transitions at 269.08 → 132.57 m/z was used for quantification. […] Data were processed using Masslynx workstation data acquisition and qualitative analysis software (4.1, Waters, USA). Using the DAS program (Chinese Pharmacological Society, Beijing, China), pharmacokinetic parameters were estimated.

[3] = metabolite in rat plasma following oral acteoside 100 mg/kg, Control group, n = 6
[4] = metabolite in rat plasma following oral acteoside 100 mg/kg, UCP group, n = 6
[5] = metabolite in rat plasma following oral acteoside 100 mg/kg, WCP group, n = 6
[6] = acteoside in rat plasma, oral acteoside 100 mg/kg, Control group, n = 6
[7] = acteoside in rat plasma, oral acteoside 100 mg/kg, UCP group, n = 6
[8] = acteoside in rat plasma, oral acteoside 100 mg/kg, WCP group, n = 6

O=C(O)/C=C/c1ccc(O)c(O)c1 [Caffeic acid, caffeic acid]
Freeze–thaw stability (RSD,%) ([1]; 25 ng/mL): 9.14% | Freeze–thaw stability (RSD,%) ([1]; 200 ng/mL): 8.23% | Freeze–thaw stability (RSD,%) ([1]; 1000 ng/mL): 7.08% | Short-term stability (RSD,%) ([1]; 25 ng/mL): 7.78% | Short-term stability (RSD,%) ([1]; 200 ng/mL): 7.34% | Short-term stability (RSD,%) ([1]; 1000 ng/mL): 4.91% | Post-preparation stability (RSD,%) ([1]; 25 ng/mL): 8.33% | Post-preparation stability (RSD,%) ([1]; 200 ng/mL): 7.87% | Post-preparation stability (RSD,%) ([1]; 1000 ng/mL): 6.87% | Long-term stability (RSD,%) ([1]; 25 ng/mL): 9.75% | Long-term stability (RSD,%) ([1]; 200 ng/mL): 8.56% | Long-term stability (RSD,%) ([1]; 1000 ng/mL): 8.43% | AUC(0-inf) [2, 3]: 110 ± 15.4 ng·h/mL | AUC(0-t) [2, 3]: 76.1 ± 13.3 ng·h/mL | Tmax [2, 3]: 0.75 h | half-life [2, 3]: 2.17 ± 0.693 h | Cmax ([2]; metabolite in rat plasma following oral acteoside 100 mg/kg, Control group, n = 6, read-out: Cmax): 30.4 ± 14.2 ng/mL | MRT last [2, 3]: 1.56 ± 0.172 h | MRT inf [2, 3]: 2.51 ± 0.273 h | AUC(0-inf) [2, 4]: 117 ± 13.3 ng·h/mL | AUC(0-t) [2, 4]: 100 ± 17.7 ng·h/mL | Tmax [2, 4]: 0.75 h | Cmax ([2]; metabolite in rat plasma following oral acteoside 100 mg/kg, UCP group, n = 6, read-out: Cmax): 44.1 ± 15.8 ng/mL | MRT last [2, 4]: 1.54 ± 0.166 h | MRT inf [2, 4]: 2.18 ± 0.267 h | AUC(0-inf) [2, 5]: 144 ± 26.7 ng·h/mL | AUC(0-t) [2, 5]: 125 ± 25.9 ng·h/mL | Tmax [2, 5]: 0.75 h | half-life [2, 5]: 1.29 ± 0.914 h | Cmax ([2]; metabolite in rat plasma following oral acteoside 100 mg/kg, WCP group, n = 6, read-out: Cmax): 55.5 ± 16.9 ng/mL | MRT last [2, 5]: 1.52 ± 0.161 h | MRT inf [2, 5]: 2.1 ± 0.256 h | Cmax of metabolite, WCP group relative to UCP group ([2]; rats, following oral acteoside 100 mg/kg): 1.26 times

C[C@@H]1O[C@@H](O[C@@H]2[C@@H](O)[C@H](OCCc3ccc(O)c(O)c3)O[C@H](CO)[C@H]2OC(=O)/C=C/c2ccc(O)c(O)c2)[C@H](O)[C@H](O)[C@H]1O [Acteoside, acteoside]
Freeze–thaw stability (RSD,%) ([1]; 25 ng/mL): 7.93% | Freeze–thaw stability (RSD,%) ([1]; 200 ng/mL): 4.56% | Freeze–thaw stability (RSD,%) ([1]; 1000 ng/mL): 4.45% | Short-term stability (RSD,%) ([1]; 25 ng/mL): 6.91% | Short-term stability (RSD,%) ([1]; 200 ng/mL): 3.15% | Short-term stability (RSD,%) ([1]; 1000 ng/mL): 2.79% | Post-preparation stability (RSD,%) ([1]; 25 ng/mL): 7.03% | Post-preparation stability (RSD,%) ([1]; 200 ng/mL): 3.46% | Post-preparation stability (RSD,%) ([1]; 1000 ng/mL): 3.68% | Long-term stability (RSD,%) ([1]; 25 ng/mL): 8.28% | Long-term stability (RSD,%) ([1]; 200 ng/mL): 6.67% | Long-term stability (RSD,%) ([1]; 1000 ng/mL): 4.99% | AUC(0-inf) [2, 6]: 4360 ± 130 ng·h/mL | AUC(0-t) [2, 6]: 4200 ± 153 ng·h/mL | Tmax [2, 6]: 0.5 h | half-life [2, 6]: 2.06 ± 1.3 h | Cmax ([2]; acteoside in rat plasma, oral acteoside 100 mg/kg, Control group, n = 6, read-out: Cmax): 863 ± 63.4 ng/mL | MRT last [2, 6]: 3.94 ± 0.165 h | MRT inf [2, 6]: 4.34 ± 0.512 h | AUC(0-t) ([2]; acteoside in rat plasma, oral acteoside 100 mg/kg, UCP group (21 days UCP before), n = 6): 4980 ± 231 ng·h/mL | AUC(0-inf) [2, 7]: 5050 ± 267 ng·h/mL | Tmax [2, 7]: 0.75 h | Cmax ([2]; acteoside in rat plasma, oral acteoside 100 mg/kg, UCP group, n = 6, read-out: Cmax): 1030 ± 98.3 ng/mL | MRT last [2, 7]: 4.94 ± 0.165 h | MRT inf [2, 7]: 5.29 ± 0.629 h | AUC(0-t) ([2]; acteoside in rat plasma, oral acteoside 100 mg/kg, WCP group (21 days WCP before), n = 6): 6660 ± 543 ng·h/mL | AUC(0-inf) [2, 8]: 6690 ± 633 ng·h/mL | Tmax [2, 8]: 0.75 h | Cmax ([2]; acteoside in rat plasma, oral acteoside 100 mg/kg, WCP group, n = 6, read-out: Cmax): 1590 ± 103 ng/mL | MRT last [2, 8]: 4.996 ± 0.032 h | MRT inf [2, 8]: 5.6 ± 0.837 h | Cmax ([2]; rat plasma, oral acteoside 100 mg/kg, Control group, read-out: mean Cmax of acteoside): 863 ng/mL | Cmax ([2]; rat plasma, oral acteoside 100 mg/kg, UCP group, read-out: mean Cmax of acteoside): 1030 ng/mL | Cmax ([2]; rat plasma, oral acteoside 100 mg/kg, WCP group, read-out: mean Cmax of acteoside): 1590 ng/mL | AUC(0-∞) of acteoside, increase after UCP relative to control ([2]; rats, oral acteoside 100 mg/kg): 1.16 times | AUC(0-∞) of acteoside, increase after WCP relative to control ([2]; rats, oral acteoside 100 mg/kg): 1.54 times | Cmax of acteoside, UCP group relative to control group ([2]; rats, oral acteoside 100 mg/kg): 1.19 times | Cmax of acteoside, WCP group relative to control group ([2]; rats, oral acteoside 100 mg/kg): 1.84 times | t1/2 of acteoside, WCP group relative to UCP group ([2]; rats, oral acteoside 100 mg/kg): 1.18 times
